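How tested: cells in 96-well plates exposed to compound for 48 hours at five concentrations. The concentration for 50% growth inhibition is given as GI50.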 Active and inactive are the calls of the source. Cut-off read from the data, not from the text of the source: active = GI50 up to about 1.1 µM and inactive = higher.
Key:
Assay in all cases: NCI anticancer screen, dose series, 48 h
COLO 205 = system: COLO 205
SR = system: SR
HL-60 = system: HL-60
NCI-H522 = system: NCI-H522
SK-MEL-2 = system: SK-MEL-2
HCC 2998 = system: HCC 2998
SK-OV-3 = system: SK-OV-3
HT-29 = system: HT-29
U-251 = system: U-251
SNB-19 = system: SNB-19
RPMI-8226 = system: RPMI-8226
OVCAR-8 = system: OVCAR-8
SK-MEL-28 = system: SK-MEL-28
SF-295 = system: SF-295
RXF 393 = system: RXF 393

Row | SMILES | GI50 (COLO 205) | GI50 (SR) | GI50 (HL-60) | GI50 (NCI-H522) | GI50 (SK-MEL-2) | GI50 (HCC 2998) | GI50 (SK-OV-3) | GI50 (HT-29) | GI50 (U-251) | GI50 (SNB-19) | GI50 (RPMI-8226) | GI50 (OVCAR-8) | GI50 (SK-MEL-28) | GI50 (SF-295) | GI50 (RXF 393)
1 | Oc1cc(-c2ccc3c(c2)OCO3)nc2cc3c(cc12)OCO3 | 31.5 µM (inactive) | 6.35 µM (inactive) | 24.5 µM (inactive) | 40.2 µM (inactive) | 31.1 µM (inactive) | 31.4 µM (inactive) | 30.9 µM (inactive) | 37.8 µM (inactive) | 30.5 µM (inactive) | 54.3 µM (inactive) | 37.5 µM (inactive) | 25.7 µM (inactive) | 37.4 µM (inactive) | – | –
2 | C=CCNC(=O)NCCCCC(NC(C)=O)C(=O)NCc1ccccc1 (centres undefined) | > 100 µM (inactive) | – | > 100 µM (inactive) | > 100 µM (inactive) | > 100 µM (inactive) | > 100 µM (inactive) | > 100 µM (inactive) | > 100 µM (inactive) | > 100 µM (inactive) | > 100 µM (inactive) | > 100 µM (inactive) | > 100 µM (inactive) | > 100 µM (inactive) | > 100 µM (inactive) | > 100 µM (inactive)
3 | CCC1(O)C(=O)OCc2c1cc1n(c2=O)Cc2c-1nc1ccccc1c2OC (centres undefined) | 0.378 µM (active) | < 0.01 µM (active) | < 0.01 µM (active) | 0.0242 µM (active) | 2.16 µM (inactive) | 0.218 µM (active) | 0.0386 µM (active) | 0.061 µM (active) | < 0.01 µM (active) | < 0.01 µM (active) | < 0.0212 µM (active) | 0.0194 µM (active) | 0.32 µM (active) | < 0.01 µM (active) | < 0.0136 µM (active)
4 | COc1ccc2c(c1)Oc1cc(O)ccc1[C@@H]2c1ccccc1C(=O)NC(C)c1ccccc1 (some centres undefined) | 16.4 µM (inactive) | – | 11.3 µM (inactive) | 14.4 µM (inactive) | 18.7 µM (inactive) | 11.9 µM (inactive) | 23.1 µM (inactive) | 15.3 µM (inactive) | 15 µM (inactive) | 15.6 µM (inactive) | 6.49 µM (inactive) | 17.6 µM (inactive) | 15.4 µM (inactive) | 13 µM (inactive) | 13.1 µM (inactive)
5 | Cc1ccc(C(=O)NCCN(C)C)c2nc3ccccc3cc12 | 1.57 µM (inactive) | – | 1.42 µM (inactive) | – | 2.53 µM (inactive) | 2.56 µM (inactive) | 30.3 µM (inactive) | 0.462 µM (active) | 0.644 µM (active) | 2.36 µM (inactive) | 4.24 µM (inactive) | 0.622 µM (active) | 1.95 µM (inactive) | 1.07 µM (active) | 1.29 µM (inactive)
6 | N#C/C(=C1\SCC(=O)N1c1ccccc1)c1nc2ccccc2[nH]1 | > 100 µM (inactive) | – | > 100 µM (inactive) | > 100 µM (inactive) | > 100 µM (inactive) | – | > 100 µM (inactive) | > 100 µM (inactive) | > 100 µM (inactive) | > 100 µM (inactive) | – | > 100 µM (inactive) | > 100 µM (inactive) | > 100 µM (inactive) | > 100 µM (inactive)
7 | O=C(O)CNS(=O)(=O)c1ccc(NC(=O)CI)cc1 | 26.2 µM (inactive) | – | 18.2 µM (inactive) | 2.16 µM (inactive) | 23.3 µM (inactive) | > 100 µM (inactive) | 33.8 µM (inactive) | 21.2 µM (inactive) | 19.1 µM (inactive) | 58.2 µM (inactive) | 15.7 µM (inactive) | 21.1 µM (inactive) | 24.4 µM (inactive) | 26.3 µM (inactive) | 15.5 µM (inactive)
8 | O=C1CC[C@@H](S(=O)(=O)c2ccccc2)[C@@H](/C=C/c2ccccc2)O1 | > 100 µM (inactive) | > 100 µM (inactive) | > 100 µM (inactive) | > 100 µM (inactive) | – | > 100 µM (inactive) | > 100 µM (inactive) | > 100 µM (inactive) | > 100 µM (inactive) | > 100 µM (inactive) | > 100 µM (inactive) | > 100 µM (inactive) | > 100 µM (inactive) | > 100 µM (inactive) | > 100 µM (inactive)
9 | CC(C)(C)CC(C)(C)NCC(O)COc1ccc(C(C)(C)c2ccc(OCC(O)CNC(C)(C)CC(C)(C)C)cc2)cc1 (centres undefined) | 0.376 µM (active) | 0.366 µM (active) | 1.46 µM (inactive) | 1.61 µM (inactive) | 1.84 µM (inactive) | 0.349 µM (active) | 1.77 µM (inactive) | 0.403 µM (active) | 0.7 µM (active) | 1.64 µM (inactive) | 1.46 µM (inactive) | 1.64 µM (inactive) | 0.615 µM (active) | 1.68 µM (inactive) | 1.82 µM (inactive)
10 | COC(=O)C1=C(C[S+]([O-])c2ccc([N+](=O)[O-])cc2[N+](=O)[O-])C2C=CC1C2 (centres undefined) | 19.2 µM (inactive) | – | 16.2 µM (inactive) | 13.8 µM (inactive) | 41.4 µM (inactive) | 38.4 µM (inactive) | 38.3 µM (inactive) | 17.7 µM (inactive) | 20 µM (inactive) | > 100 µM (inactive) | 77.1 µM (inactive) | 30.5 µM (inactive) | – | 65 µM (inactive) | 26.2 µM (inactive)
11 | N#CC(C#N)=c1ccc(=C2NCC3CCCN23)cc1 (centres undefined) | > 100 µM (inactive) | > 100 µM (inactive) | > 100 µM (inactive) | > 100 µM (inactive) | > 100 µM (inactive) | > 100 µM (inactive) | > 100 µM (inactive) | > 100 µM (inactive) | > 100 µM (inactive) | > 100 µM (inactive) | > 100 µM (inactive) | > 100 µM (inactive) | – | > 100 µM (inactive) | > 100 µM (inactive)
12 | CC(=O)NC1=C(Nc2ccc(C)cc2)C(=O)c2ccccc2C1=O | 18.7 µM (inactive) | – | 10.2 µM (inactive) | – | 21.6 µM (inactive) | 31.7 µM (inactive) | > 75 µM (inactive) | 15.2 µM (inactive) | 29 µM (inactive) | 29.3 µM (inactive) | 11.7 µM (inactive) | 25 µM (inactive) | 17.6 µM (inactive) | 18.2 µM (inactive) | 23.5 µM (inactive)
13 | COC1O[C@@H]2COC(C)(C)O[C@@H]2C(=O)N1Nc1ccc([N+](=O)[O-])cc1 (some centres undefined) | > 100 µM (inactive) | – | > 100 µM (inactive) | – | > 100 µM (inactive) | > 100 µM (inactive) | > 100 µM (inactive) | 63 µM (inactive) | > 100 µM (inactive) | > 100 µM (inactive) | 21 µM (inactive) | > 100 µM (inactive) | > 100 µM (inactive) | > 100 µM (inactive) | > 100 µM (inactive)
14 | COC(=O)[C@@]12C3=NO[C@]1(C(=O)OC)C(O[Si](C)(C)C(C)(C)C)C1OC(C)(C)OC1[C@@H]2[C@@H](OCc1ccccc1)CC3 (some centres undefined) | 83.8 µM (inactive) | – | 3.11 µM (inactive) | – | > 100 µM (inactive) | > 100 µM (inactive) | > 100 µM (inactive) | 33 µM (inactive) | > 100 µM (inactive) | > 100 µM (inactive) | 6.1 µM (inactive) | > 100 µM (inactive) | > 100 µM (inactive) | > 100 µM (inactive) | –
